Literature values in US20060127910A1, “Bpl1 as an antifungal target” (priority 2002, published 2006).

Settings: mice, DOX 2 mg/ml in 5% sucrose solution as drinking water, approx. 5 ml per day

C[C@H]1c2cccc(O)c2C(O)=C2C(=O)[C@]3(O)C(O)=C(C(N)=O)C(=O)[C@@H](N(C)C)[C@@H]3[C@@H](O)[C@@H]21 [DOX, doxycycline]
concentration of DOX in kidney (kidney): > 10 mg/g of kidney
concentration of DOX in liver (liver): > 8 mg/g of liver
concentration of DOX in serum (serum): more than 2 mg/ml of serum
